The test system of experiment [1] is Acinetobacter baumannii. The experiment in a line: Inhibition of beta-lactamase in Acinetobacter baumannii CL 6188 assessed as drug concentration required to reduce imipenem MIC to 4 ug/ml.
The test system of experiment [2] is Pseudomonas aeruginosa. As to the kind of experiment: Inhibition of beta-lactamase in Pseudomonas aeruginosa CL 5701 assessed as drug concentration required to reduce imipenem MIC to 4 ug/ml.
In experiment [3] the test system is Klebsiella pneumoniae. The experiment in a line: Inhibition of beta-lactamase in Klebsiella pneumoniae CL 6569 assessed as drug concentration required to reduce imipenem MIC to 4 ug/ml.
The target in experiment [4] is Beta-lactamase (Acinetobacter baumannii, UniProt Q8RLA6). The experiment in a line: Inhibition of beta-lactamase Oxa40 in Acinetobacter baumannii assessed as inhibition of hydrolysis of nitrocefin.
Experiment [5] in a line: Inhibition of beta-lactamase AmpC in Acinetobacter baumannii assessed as inhibition of hydrolysis of nitrocefin.
Experiment [6] in a line: Inhibition of beta-lactamase AmpC in Pseudomonas aeruginosa assessed as inhibition of hydrolysis of nitrocefin.
A short description of experiment [7]: Inhibition of beta-lactamase KPC-2 in Klebsiella pneumoniae assessed as inhibition of hydrolysis of nitrocefin.

Where only a bound is given, the exact number is not on record here.

The values below come from ChEMBL document CHEMBL3112543, “Discovery of MK-7655, a β-lactamase inhibitor for combination with Primaxin®” (Bioorg Med Chem Lett, 2014).

What is called IC50 is the point on the concentration scale where inhibition reaches its midpoint.

Sequence of Beta-lactamase (Q8RLA6 whole entry): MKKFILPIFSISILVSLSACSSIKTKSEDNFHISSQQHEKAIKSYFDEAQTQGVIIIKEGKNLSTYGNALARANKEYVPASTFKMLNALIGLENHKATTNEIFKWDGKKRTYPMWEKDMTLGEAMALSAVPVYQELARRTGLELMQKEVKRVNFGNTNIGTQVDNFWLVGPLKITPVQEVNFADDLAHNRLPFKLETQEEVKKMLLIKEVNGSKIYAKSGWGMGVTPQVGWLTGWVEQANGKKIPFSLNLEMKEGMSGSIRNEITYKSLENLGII

For the molecule `NCc1ccc(NC(=O)[C@@H]2CC[C@@H]3CN2C(=O)N3OS(=O)(=O)O)nc1`, the values for the INH in experiment [1], in experiment [2] and in experiment [3] were over 100 µM, 6.25 µM and 12.5 µM, respectively. For the same molecule, the IC50 in experiment [4] was determined as 4400 nM; in experiment [5], 26 nM; in experiment [6] it was 3 nM; in experiment [7], 42 nM.
Consider `O=C(N[C@H]1CCCNCC1)[C@@H]1CC[C@@H]2CN1C(=O)N2OS(=O)(=O)O`, for which the INH in experiment [1] is over 100 µM; in experiment [2], 6.25 µM; in experiment [3] it was 12.5 µM. Also, the IC50 in experiment [4] is over 50000 nM; in experiment [5], 1700 nM; in experiment [6], 69 nM; in experiment [7], 245 nM.
With `O=C(N[C@H]1CCNC1)[C@@H]1CC[C@@H]2CN1C(=O)N2OS(=O)(=O)O`, the INH is over 100 µM in experiment [1], 3.12 µM in experiment [2] and 6.25 µM in experiment [3]. In addition, the IC50 in experiment [4] was over 50000 nM; in experiment [5], 5600 nM; in experiment [6], 140 nM; in experiment [7], 410 nM.
In the case of `N[C@@H](Cc1ccc(NC(=O)[C@@H]2CC[C@@H]3CN2C(=O)N3OS(=O)(=O)O)cc1)C(=O)O`, the INH is over 100 µM in experiment [1], 25 µM in experiment [2] and 50 µM in experiment [3]. The concentration for half-maximal inhibition (IC50) in experiment [4] was determined as 28000 nM; in experiment [5] it was 1100 nM; in experiment [6] it was 11 nM; in experiment [7] it was 3 nM.
Turning to `CN1CCC(NC(=O)[C@@H]2CC[C@@H]3CN2C(=O)N3OS(=O)(=O)O)CC1`, the results for the INH in experiment [1], in experiment [2] and in experiment [3] were over 100 µM, 12.5 µM and 12.5 µM, respectively. Also, the IC50 is over 50000 nM in experiment [4], 2700 nM in experiment [5], 500 nM in experiment [6] and 240 nM in experiment [7].
On to `O=C(NC1CCNCC1)[C@@H]1CC[C@@H]2CN1C(=O)N2OS(=O)(=O)O` [RELEBACTAM], for which the INH is over 100 µM in experiment [1], 4.7 µM in experiment [2] and 12.5 µM in experiment [3]. In addition, the IC50 in experiment [4] was over 50000 nM; in experiment [5] it was 4100 nM; in experiment [6], 465 nM.
Consider `O=C(NC1CCS(=O)(=O)CC1)[C@@H]1CC[C@@H]2CN1C(=O)N2OS(=O)(=O)O`, for which the INH is over 100 µM in experiment [1], 50 µM in experiment [2] and 50 µM in experiment [3]. The IC50 is over 50000 nM in experiment [4], 470 nM in experiment [5], 9.5 nM in experiment [6] and 150 nM in experiment [7].
In the case of `O=C(N[C@@H]1CCNC1)[C@@H]1CC[C@@H]2CN1C(=O)N2OS(=O)(=O)O`, the INH in experiment [1] was over 100 µM; in experiment [2], 6.25 µM; in experiment [3], 6.25 µM. The IC50 in experiment [4] is over 50000 nM; in experiment [5], 27000 nM; in experiment [6] it was 1900 nM; in experiment [7] it was 260 nM.
In the case of `O=C(NCC1CCNCC1)[C@@H]1CC[C@@H]2CN1C(=O)N2OS(=O)(=O)O`, the INH was over 100 µM in experiment [1], 6.25 µM in experiment [2] and 6.25 µM in experiment [3]. The IC50 in experiment [4] was over 50000 nM; in experiment [5], 2200 nM; in experiment [6], 30 nM; in experiment [7] it was 77 nM.
On to `O=C(OC1CCNCC1)[C@@H]1CC[C@@H]2CN1C(=O)N2OS(=O)(=O)O`, for which the INH in experiment [1] is over 100 µM; in experiment [2], 6.25 µM; in experiment [3] it was 6.25 µM. Further, the IC50 in experiment [4] turned out to be 13000 nM; in experiment [5], 1100 nM; in experiment [6], 170 nM; in experiment [7] it was 9 nM.
On to `CN(C(=O)[C@@H]1CC[C@@H]2CN1C(=O)N2OS(=O)(=O)O)C1CCNCC1`, for which the figures for the INH in experiment [1], in experiment [2] and in experiment [3] were over 100 µM, 25 µM and 50 µM, respectively. Moreover, the IC50 is over 50000 nM in experiment [4], 2100 nM in experiment [5], 290 nM in experiment [6] and 2500 nM in experiment [7].
For `O=C(Nc1cccnc1)[C@@H]1CC[C@@H]2CN1C(=O)N2OS(=O)(=O)O`, the results for the INH in experiment [1], in experiment [2] and in experiment [3] were over 100 µM, 100 µM and 50 µM, respectively. Also, the IC50 stood at 20000 nM in experiment [4], 1200 nM in experiment [5], 37 nM in experiment [6] and 42 nM in experiment [7].
In the case of `O=C(N[C@@H]1CCCNCC1)[C@@H]1CC[C@@H]2CN1C(=O)N2OS(=O)(=O)O`, the INH was over 100 µM in experiment [1], 6.25 µM in experiment [2] and 12.5 µM in experiment [3]. Besides, the IC50 in experiment [4] is over 50000 nM; in experiment [5], 1200 nM; in experiment [6], 520 nM; in experiment [7], 225 nM.
For the molecule `O=C(Nc1ccccn1)[C@@H]1CC[C@@H]2CN1C(=O)N2OS(=O)(=O)O`, the INH is over 100 µM in experiment [1], 12.5 µM in experiment [2] and 100 µM in experiment [3]. Moreover, the concentration for half-maximal inhibition (IC50) in experiment [4] stood at 530 nM; in experiment [5] it was 23 nM; in experiment [6] it was 1.2 nM; in experiment [7], 36 nM.
With `O=C(O)c1ccc(NC(=O)[C@@H]2CC[C@@H]3CN2C(=O)N3OS(=O)(=O)O)cc1`, the INH in experiment [1] was over 100 µM; in experiment [2] it was 50 µM; in experiment [3], over 100 µM. For the same molecule, the IC50 came out at 4800 nM in experiment [4], 460 nM in experiment [5], 11 nM in experiment [6] and 10 nM in experiment [7].
On to `C[n+]1ccc(NC(=O)[C@@H]2CC[C@@H]3CN2C(=O)N3OS(=O)(=O)[O-])cc1`, for which the INH in experiment [1] was over 100 µM; in experiment [2], 25 µM; in experiment [3] it was 25 µM. The IC50 is over 50000 nM in experiment [4], 12000 nM in experiment [5], 210 nM in experiment [6] and 260 nM in experiment [7].
Regarding `Nc1cccc(NC(=O)[C@@H]2CC[C@@H]3CN2C(=O)N3OS(=O)(=O)O)n1`, the INH is over 100 µM in experiment [1], 50 µM in experiment [2] and 25 µM in experiment [3]. The IC50 came to 360 nM in experiment [4], 100 nM in experiment [5], 8 nM in experiment [6] and 11 nM in experiment [7].
Take `O=C(Nc1ccncc1)[C@@H]1CC[C@@H]2CN1C(=O)N2OS(=O)(=O)O`: the INH in experiment [1] was over 100 µM; in experiment [2], 25 µM; in experiment [3], 50 µM. Besides, the IC50 in experiment [4] turned out to be 20000 nM; in experiment [5], 1050 nM; in experiment [6] it was 6 nM.
